Laboratory results as given in patent US20220281821A1, “INDAZOLE COMPOUNDS AND THEIR PHARMACEUTICAL COMPOSITIONS” (Jinan University, priority 2019, published 2022).
pIC50: −log10 of the molar value.

Tests used:
Type in all cases: cell-based, mouse
[1] = target: T1, BaF3-CD74-NTRK1 (Homo sapiens, UniProt P04629); experiment: Cell proliferation inhibition (CCK-8), BaF3-CD74-NTRK1 stable strain; conditions: BaF3-CD74-NTRK1, 72 hours
T1 construct: fused on or other part: P04233 (HLA class II histocompatibility antigen gamma chain)
Method: (§1) The brief steps of stable strain construction are as follows: construct a pCDNA3.1(+) plasmid vector carrying genes such as CD74-NTRK1, ETV6-NTRK2 and ETV6-NTRK3; the plasmid was electroporated into Ba/F3 cells using the Amaxa® Cell Line Nucleofector® Kit V; 48 hours after electroporated, G418 with a final concentration of 1000 μg/ml was added for screening for two weeks, and then IL3 was removed, and continued screening to obtain polyclonal stable strains; then single clones were selected by a limiting dilution method. The stable strains were then identified using positive drugs, WB and gene sequencing; and the monoclonal clones that were identified as completely correct may be used for the study of cell proliferation inhibitory activity of inhibitors.
(§2) Cell proliferation inhibition activity study: the cells in the logarithmic growth phase were seeded into 96-well plates at 8000-12000 cells/well, and inhibitors at different concentrations (0-10 μM) were added the next day, and incubation was continued for 72 hours; then 10 μL of CCK-8 reagent was added to each well, and the incubation was continued for 1-3 hours; and then use a super microplate reader to measure their absorbance values at 450 nm and 650 nm. The half-inhibition concentration (IC50) was calculated using GraphPad Prism 8.0.0.

[2] = target: T2, BaF3-ETV6-NTRK2 (Homo sapiens, UniProt Q16620); experiment: Cell proliferation inhibition (CCK-8), BaF3-ETV6-NTRK2 stable strain; conditions: BaF3-ETV6-NTRK2, 72 hours
T2 construct: fused on or other part: P41212 (Transcription factor ETV6)
Method: as §1, §2

[3] = target: T3, BaF3-ETV6-NTRK3 (Homo sapiens, UniProt Q16288); experiment: Cell proliferation inhibition (CCK-8), BaF3-ETV6-NTRK3 stable strain; conditions: BaF3-ETV6-NTRK3, 72 hours
T3 construct: fused on or other part: P41212 (Transcription factor ETV6)
Method: as §1, §2

T2 sequence (Q16620 538-822 limits assumed): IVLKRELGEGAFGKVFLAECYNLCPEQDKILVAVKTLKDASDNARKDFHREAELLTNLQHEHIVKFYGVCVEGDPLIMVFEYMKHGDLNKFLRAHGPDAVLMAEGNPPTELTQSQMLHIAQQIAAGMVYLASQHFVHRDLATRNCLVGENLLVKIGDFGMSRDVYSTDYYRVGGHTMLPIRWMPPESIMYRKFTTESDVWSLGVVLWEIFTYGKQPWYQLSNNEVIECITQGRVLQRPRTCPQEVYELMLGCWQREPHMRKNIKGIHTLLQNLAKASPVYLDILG
T1 sequence (P04629 510-796 limits assumed): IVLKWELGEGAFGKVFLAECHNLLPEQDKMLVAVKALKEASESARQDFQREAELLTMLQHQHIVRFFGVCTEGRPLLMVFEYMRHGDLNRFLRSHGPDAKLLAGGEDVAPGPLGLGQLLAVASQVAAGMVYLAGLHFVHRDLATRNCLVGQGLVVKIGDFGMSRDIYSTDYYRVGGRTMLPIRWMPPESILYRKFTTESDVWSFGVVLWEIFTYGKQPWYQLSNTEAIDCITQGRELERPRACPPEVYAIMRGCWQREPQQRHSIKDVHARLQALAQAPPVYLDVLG
T3 sequence (Q16288 whole entry, the tested form may be a part): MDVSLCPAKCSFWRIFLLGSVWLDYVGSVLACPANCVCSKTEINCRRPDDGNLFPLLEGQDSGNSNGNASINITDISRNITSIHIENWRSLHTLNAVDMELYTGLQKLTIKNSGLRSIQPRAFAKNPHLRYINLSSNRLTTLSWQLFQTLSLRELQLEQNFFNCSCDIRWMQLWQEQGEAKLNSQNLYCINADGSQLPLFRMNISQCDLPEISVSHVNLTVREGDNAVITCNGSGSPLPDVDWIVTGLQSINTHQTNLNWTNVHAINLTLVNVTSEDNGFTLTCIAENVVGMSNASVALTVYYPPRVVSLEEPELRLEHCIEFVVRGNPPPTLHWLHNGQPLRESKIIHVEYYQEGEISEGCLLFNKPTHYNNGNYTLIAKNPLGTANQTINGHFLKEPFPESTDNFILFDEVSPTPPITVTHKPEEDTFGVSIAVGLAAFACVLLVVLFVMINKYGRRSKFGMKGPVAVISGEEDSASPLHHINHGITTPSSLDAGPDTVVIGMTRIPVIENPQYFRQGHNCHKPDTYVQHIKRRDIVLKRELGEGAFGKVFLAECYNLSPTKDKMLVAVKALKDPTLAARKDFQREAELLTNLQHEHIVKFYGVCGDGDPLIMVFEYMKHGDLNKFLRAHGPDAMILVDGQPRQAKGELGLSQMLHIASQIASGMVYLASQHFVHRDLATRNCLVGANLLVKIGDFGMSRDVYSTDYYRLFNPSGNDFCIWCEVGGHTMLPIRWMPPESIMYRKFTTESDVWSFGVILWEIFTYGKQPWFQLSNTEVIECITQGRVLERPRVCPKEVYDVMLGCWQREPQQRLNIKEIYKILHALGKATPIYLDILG

pIC50 [1] | pIC50 [2] | pIC50 [3] | Structure (SMILES)
7.45 | 7.37 | 7.41 | N#CCn1cc(/C=C/c2n[nH]c3ccc(NS(=O)(=O)c4cc(F)cc(F)c4)cc23)cn1 [CHW-1, (E)-N-(3-(2-(1-(cyanomethyl)-1H-pyrazol-4-yl)vinyl)-1H-indazol-5-yl)-3,5-difluorobenzene sulfonamide]
6.97 | 6.73 | 6.90 | CC(=O)n1cc(/C=C/c2n[nH]c3ccc(NS(=O)(=O)c4cc(F)cc(F)c4)cc23)cn1 [CHW-2, (E)-N-(3-(2-(1-acetyl-1H-pyrazol-4-yl)vinyl)-1H-indazol-5-yl)-3,5-difluorobenzenesulfonamide]
7.04 | 6.78 | 6.91 | O=S(=O)(Nc1ccc2[nH]nc(/C=C/c3cnn(CC(F)(F)F)c3)c2c1)c1cc(F)cc(F)c1 [CHW-3]
8.51 | 8.09 | 8.15 | O=S(=O)(Nc1ccc2[nH]nc(/C=C/c3cnn(C4CC4)c3)c2c1)c1cc(F)cc(F)c1 [CHW-4]
7.56 | 7.15 | 7.23 | O=S(=O)(Nc1ccc2[nH]nc(/C=C/c3ccccn3)c2c1)c1cccc(F)c1 [CHW-5, (E)-3-fluoro-N-(3-(2-(pyridin-2-yl)vinyl)-1H-indazol-5-yl)benzene sulfonamide]
7.64 | 7.22 | 7.27 | O=S(=O)(Nc1ccc2[nH]nc(/C=C/c3cnn(CC(F)F)c3)c2c1)c1cc(F)cc(F)c1 [CHW-6]
7.48 | 7.24 | 7.39 | CC(C)n1cc(/C=C/c2n[nH]c3ccc(NS(=O)(=O)c4cc(F)cc(F)c4)cc23)cn1 [CHW-7, (E)-3,5-difluoro-N-(3-(2-(1-isopropyl-1H-pyrazol-4-yl)vinyl)-1H-indazol-5-yl)benzenesulfonamide]
6.84 | 6.61 | 6.76 | O=S(=O)(Nc1ccc2[nH]nc(/C=C/c3cccnc3)c2c1)c1cc(F)cc(F)c1 [CHW-8, (E)-3,5-difluoro-N-(3-(2-(pyridin-3-yl)vinyl)-1H-indazol-5-yl)benzenesulfonamide]
7.22 | 6.87 | 6.92 | O=S(=O)(Nc1ccc2[nH]nc(/C=C/c3ccccn3)c2c1)c1cncc(F)c1 [CHW-9, (E)-5-fluoro-N-(3-(2-(pyridin-2-yl)vinyl)-1H-indazol-5-yl)pyridine-3-sulfonamide]
6.56 | 6.36 | 6.41 | CN(C)C(=O)Cn1cc(/C=C/c2n[nH]c3ccc(NS(=O)(=O)c4cc(F)cc(F)c4)cc23)cn1 [CHW-10, (E)-2-(4-(2-(5-((3,5-difluorophenyl)sulfonamido)-1H-indazol-3-yl)vinyl)-1H-pyrazol-1-yl)-N,N-dimethylacetamide]
7.27 | 6.99 | 6.95 | O=S(=O)(Nc1ccc2[nH]nc(/C=C/c3cnn(C(F)F)c3)c2c1)c1cc(F)cc(F)c1 [CHW-11]
7.47 | 7.25 | 7.32 | CC(C)OCCn1cc(/C=C/c2n[nH]c3ccc(NS(=O)(=O)c4cc(F)cc(F)c4)cc23)cn1 [CHW-12]
7.40 | 7.28 | 7.38 | COCCn1cc(/C=C/c2n[nH]c3ccc(NS(=O)(=O)c4cc(F)cc(F)c4)cc23)cn1 [CHW-13]
6.48 | 6.37 | 6.46 | CNC(=O)Cn1cc(/C=C/c2n[nH]c3ccc(NS(=O)(=O)c4cc(F)cc(F)c4)cc23)cn1 [CHW-14, (E)-2-(4-(2-(5-((3,5-difluorophenyl)sulfonamido)-1H-indazol-3-yl)vinyl)-1H-pyrazol-1-yl)-N-methylacetamide]
5.34 | 5.51 | 5.68 | N#Cc1cccc(Cc2ccc3[nH]nc(C#Cc4ccccn4)c3c2)c1 [DYX-136Q, 3-((3-(pyridin-2-ylethynyl)-1H-indazol-5-yl)methyl)benzonitrile]
< 5.00 | < 5.00 | < 5.00 | FC(F)(F)c1cccc(Cc2ccc3[nH]nc(C#Cc4ccccn4)c3c2)c1 [DYX-138Q]

pIC50 [1] | pIC50 [2] | pIC50 [3] | Structure (SMILES)
7.67 | 7.50 | 7.65 | CN(C)C(=O)/C=C/c1n[nH]c2ccc(NCc3cc(F)cc(F)c3)cc12 [DYX-220, (E)-3-(5-((3,5-difluorobenzyl)amino)-1H-indazol-3-yl)-N,N-dimethylacrylamide]
7.43 | 7.26 | 7.38 | O=C(/C=C/c1n[nH]c2ccc(NCc3cc(F)cc(F)c3)cc12)N1CCOCC1 [DYX-222, (E)-3-(5-((3,5-difluorobenzyl)amino)-1H-indazol-3-yl)-1-morpholinoprop-2-en-1-one]
7.42 | 7.61 | 7.45 | NC(=O)/C=C/c1n[nH]c2ccc(NCc3cc(F)cc(F)c3)cc12 [DYX-223, (E)-3-(5-((3,5-difluorobenzyl)amino)-1H-indazol-3-yl)acrylamide]
7.31 | 7.32 | 7.46 | CN1CCN(C(=O)/C=C/c2n[nH]c3ccc(NCc4cc(F)cc(F)c4)cc23)CC1 [DYX-226, (E)-3-(5-((3,5-difluorobenzyl)amino)-1H-indazol-3-yl)-1-(4-methylpiperazin-1-yl)prop-2-en-1-one]
7.43 | 7.25 | 7.48 | O=C(/C=C/c1n[nH]c2ccc(NCc3cc(F)cc(F)c3)cc12)N1CC[C@@H](O)C1 [DYX-227, (R,E)-3-(5-((3,5-difluorobenzyl)amino)-1H-indazol-3-yl)-1-(3-hydroxylpyrrolidin-1-yl)prop-2-en-1-one]
7.92 | 7.69 | 7.94 | O=C(/C=C/c1n[nH]c2ccc(NCc3cc(F)cc(F)c3)cc12)N1CC[C@H](O)C1 [DYX-228, (S,E)-3-(5-((3,5-difluorobenzyl)amino)-1H-indazol-3-yl)-1-(3-hydroxylpyrrolidin-1-yl)prop-2-en-1-one]
6.17 | 6.52 | 6.44 | CC(C)(C)NC(=O)/C=C/c1n[nH]c2ccc(NCc3cc(F)cc(F)c3)cc12 [DYX-230, (E)-N-tert-butyl-3-(5-((3,5-difluorobenzyl)amino)-1H-indazol-3-yl)acrylamide]
6.21 | 6.11 | 6.26 | CC(C)NC(=O)/C=C/c1n[nH]c2ccc(NCc3cc(F)cc(F)c3)cc12 [DYX-231, (E)-3-(5-((3,5-difluorobenzyl)amino)-1H-indazol-3-yl)-N-isopropylacrylamide]
7.70 | 7.49 | 7.47 | CNC(=O)/C=C/c1n[nH]c2ccc(NCc3cc(F)cc(F)c3)cc12 [DYX-235, (E)-3-(5-((3,5-difluorobenzyl)amino)-1H-indazol-3-yl)-N-methylacrylamide]
6.95 | 6.93 | 6.71 | CCNC(=O)/C=C/c1n[nH]c2ccc(NCc3cc(F)cc(F)c3)cc12 [DYX-236, (E)-3-(5-((3,5-difluorobenzyl)amino)-1H-indazol-3-yl)-N-ethylacrylamide]
6.81 | 6.78 | 6.83 | C(=C\c1n[nH]c2ccc(NCc3ccccc3)cc12)/c1ccccn1 [DYX-314, (E)-N-benzyl-3-(2-(pyridin-2-yl)vinyl)-1H-indazol-5-amine]
7.42 | 7.49 | 7.98 | C[C@@H](Nc1ccc2[nH]nc(/C=C/c3ccccn3)c2c1)c1cccc(F)c1 [DYX-320, (R,E)-N-(1-(3-fluorophenyl)ethyl)-3-(2-(pyridin-2-yl)vinyl)-1H-indazol-5-amine]
8.85 | 7.75 | 8.27 | C[C@@H](Nc1ccc2[nH]nc(/C=C/c3cnn(CCO)c3)c2c1)c1cc(F)cc(F)c1 [DYX-327, (R,E)-2-(4-(2-(5-((1-(3,5-difluorophenyl)ethyl)amino)-1H-indazol-3-yl)vinyl)-1H-pyrazol-1-yl)-1-ethanol]
8.00 | 6.84 | 7.33 | C[C@@H](Nc1ccc2[nH]nc(/C=C/c3ccccn3)c2n1)c1cc(F)cc(F)c1 [DYX-332, (R,E)-N-(1-(3,5-difluorophenyl)ethyl)-3-(2-(pyridin-2-yl)vinyl)-1H-pyrazolo[4,3-b]pyridin-5-amine]
9.22 | 7.97 | 8.48 | C[C@@H](Nc1ccc2[nH]nc(/C=C/c3cnn(CCO)c3)c2c1)c1cccc(F)c1 [DYX-335, (R,E)-2-(4-(2-(5-((1-(3-fluorophenyl)ethyl)amino)-1H-indazol-3-yl)vinyl)-1H-pyrazol-1-yl)-1-ethanol]
7.73 | 6.80 | 7.17 | C[C@@H](Nc1cc2c(/C=C/c3ccccn3)n[nH]c2cn1)c1cc(F)cc(F)c1 [DYX-340, (R,E)-N-(1-(3,5-difluorophenyl)ethyl)-3-(2-(pyridin-2-yl)vinyl)-1H-pyrazolo[3,4-c]pyridin-5-amine]
